US11925643B2, “Toll-like receptor 4 (TLR4) inhibitors and use thereof” (MOR RESEARCH APPLICATIONS LTD., priority 2018, dated 2024)
Non-standard residues stand in square brackets, D forms with d. Residues, ends and D or L forms follow the SMILES beside them. 1Nal = N[C@@H](Cc1cccc2ccccc12)C(=O)O

Legend:
TLR2 mRNA = TLR2 mRNA level by RT-qPCR in hypoxic cardiomyocytes (negative control); assay type: cell-based; conditions: hypoxic conditions
Protocol: (§1) Real-time RT-PCR experiments were performed in duplicates on an ABI 7900 instrument (Applied Biosystems™) using Taqman™ Master Mix (Applied Biosystems™). The average threshold cycles (Ct) of the duplicates were used to calculate the relative expression levels of the following genes: TLR4 (Applied Biosystems™ assay primer ID: Mm00569848_m1 Tlr4), TLR2 (assay primer ID: Mm01769726_m1 Tlr2), TNF-α (assay primer ID: Mm00443260_g1 Tnf) and IL-1β (assay primer ID: Mm00434228_m1 II1b) in vitro and in vivo following hypoxia or ischemia, respectively. The reference gene was TBP and the primer used was derived from mouse TATA-box binding protein (Applied Biosystems™ assay primer ID: Mm00446973_m1 Tbp). Amounts of TLR2, TLR4, TNF-α and IL-1β mRNAs in each sample were calculated relative to TBP mRNA, based on the corresponding Cts, as Relative Quantity (RQ) values, and normalized taking as 1 a randomly selected sample of the control group (TBP mRNA). Calculation were performed using the Applied Biosystems Analysis™ software (StepOnePlus V2.2.2). All mRNA scores are presented in arbitrary units.
Next, peptidomimetics of SEQ ID NOs:1 and 2 were tested for their ability to affect the expression of TLR4. The level of TLR4 mRNA was measured by real-time reverse transcriptase polymerase chain reaction (RT-qPCR) method as described in Materials and Methods. […]

TLR4 = biological target: T1, TLR4 (Homo sapiens, UniProt O00206); assay: FACS analysis of TLR4 expressed by macrophages exposed to LPS; assay type: cell-based; conditions: 10 μM
T1 construct: FACS analysis to test the expression of TLR4 protein by macrophages under LPS treatment; endogenous in cells; host or cells: human peripheral-blood monocytes differentiated into macrophages with M-CSF
T1 sequence (O00206 24-839): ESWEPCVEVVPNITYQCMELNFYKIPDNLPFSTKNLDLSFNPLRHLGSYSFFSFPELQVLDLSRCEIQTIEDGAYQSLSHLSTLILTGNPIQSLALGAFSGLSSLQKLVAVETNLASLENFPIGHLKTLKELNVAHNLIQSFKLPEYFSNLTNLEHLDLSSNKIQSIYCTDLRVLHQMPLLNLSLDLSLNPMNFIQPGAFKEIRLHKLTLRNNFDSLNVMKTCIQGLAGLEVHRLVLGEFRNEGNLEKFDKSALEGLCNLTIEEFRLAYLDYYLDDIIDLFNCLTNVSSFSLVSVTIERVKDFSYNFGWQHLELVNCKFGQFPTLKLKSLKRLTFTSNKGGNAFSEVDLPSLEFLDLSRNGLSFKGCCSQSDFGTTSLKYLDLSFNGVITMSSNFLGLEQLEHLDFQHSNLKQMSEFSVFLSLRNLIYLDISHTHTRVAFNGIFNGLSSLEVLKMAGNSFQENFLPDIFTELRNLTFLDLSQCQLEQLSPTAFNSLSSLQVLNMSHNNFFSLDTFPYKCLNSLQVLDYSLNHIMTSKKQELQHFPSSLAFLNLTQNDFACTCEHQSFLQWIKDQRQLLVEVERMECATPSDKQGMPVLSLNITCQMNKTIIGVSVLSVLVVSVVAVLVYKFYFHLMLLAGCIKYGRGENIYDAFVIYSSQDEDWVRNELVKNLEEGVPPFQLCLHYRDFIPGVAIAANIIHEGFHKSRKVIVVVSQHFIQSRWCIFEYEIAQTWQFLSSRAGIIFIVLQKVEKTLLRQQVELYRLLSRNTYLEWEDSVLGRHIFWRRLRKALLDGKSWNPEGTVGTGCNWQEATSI
Protocol: Flow cytometry is an analytical cell-biology technique that utilizes light to count and profile cells in a heterogenous fluid mixture. Flow cytometry analysis was used to evaluate binding of antibodies to TLR4 presenting cells. In this assay, an anti-TLR4 antibody was added to a monocytes suspension and cells which bound the antibody were visualized by a fluorescently labeled secondary antibody that bound to the anti-TLR4 antibody (Ab). Accordingly, samples were first “labeled” with the anti-TLR4 antibody, then incubated with Fluor® 488 conjugated to a secondary Ab for TLR4 (CD284) positive cells visualization.
In order to confirm the specificity of binding, and further in order to correct for non-specific or background staining, isotypes control mouse IgGs were added to cell suspensions at the same concentration as the anti-TLR4 Abs. To deduct the non-specific or background staining from the positive staining due to direct Ab binding to the antigen, the level of background staining was assessed by the use of the same fluorochrome as that used for staining the anti-TLR4 Ab.
Peripheral blood (30 ml) was obtained for the isolation of monocytes. Monocytes were purified by density gradient centrifugation as described above, and/or by adherence to plastic in RPMI 1640 medium supplemented with 10% fetal bovine serum (FBS) and antibiotics. Peripheral blood mononuclear cells (PBMCs) (10^6 cells/ml) were first seeded into 24-well plates (0.5 ml per well), after 2 hours, non-adherent cells were removed by several washes with warm PBS.
Monocytes freshly isolated either by density gradient centrifugation by adherence differentiated into macrophages in complete RPMI 1640 medium supplemented with human recombinant macrophage colony stimulating factor (100 ng/ml) for 6 days. To confirm macrophage cell lineage, direct immunostaining was performed with an antibody directed against CD11b/mac1 (Biolegend® Inc., San Diego, Calif., USA). Eighty percent (80%) of positive staining was observed by flow cytometry analysis. The proportion of TLR4 in this separated cell fraction was examined by FACS analysis using, as isotype control, mouse IgG2a IsoControl (eBioscience™ #53-4724-80), and mouse anti-human CD284 Alexa Fluor® 488 Clone FITA125 secondary Ab (Isotype IgG2a. eBioscience™ #53-9917-41), which recognizes the human TLR4 (also known as CD284) cell surface antigen. Cells were analyzed in a BC Gallios Flow Cytometer (Beckman Coulter, Indianapolis Ind., USA) and were initially gated on the basis of forward and side scatter characteristics. Kaluza Software was used to analyze the results. Results are expressed as mean fluorescence intensity (MFI) and also as normalized to control. […]

TLR4 mRNA = TLR4 mRNA level by RT-qPCR in hypoxic cardiomyocytes; assay type: cell-based; conditions: hypoxic conditions
Protocol: as §1
Next, peptidomimetics of SEQ ID NOs:1 and 2 were tested for their ability to affect the expression of TLR4. The level of TLR4 mRNA was measured by real-time reverse transcriptase polymerase chain reaction (RT-qPCR) method as described in Materials and Methods. The possible effect of both compounds on expression levels of TLR2 mRNA was used as a negative control.

primary cardiomyocytes [1] = assay: CK and LDH release by primary cardiomyocytes under hypoxia (MI like); assay type: cell-based, Rat; conditions: 10 μM, FIGS. 2A, 2B
Protocol: (§2) Rat hearts (1-2 days old) were removed under sterile conditions and washed three times in phosphate-buffered saline (PBS) to remove excess blood cells. The hearts were minced and then gently agitated in RBD (a solution of proteolytic enzymes (Biological Institute, Ness-Ziona, Israel) prepared from fig tree extract, and diluted 1:100 in Ca^2+- and Mg^2+-free PBS) for a few cycles of 10 min each. Dulbecco's modified Eagle's medium (Biological Industries, Kibbutz Beit Haemek, Israel) containing 10% horse serum was added to supernatant suspensions containing the dissociated cells. The mixture was centrifuged at 1400 rpm for 4 min. The supernatant phase was discarded, and the cells were re-suspended. The cell suspension was diluted to 1.0×10^6 cells/ml, unless stated otherwise, and 1.5 ml of the suspension was placed in 35-mm plastic culture dishes collagen- or gelatin-coated, or on coated cover glasses. The cultures were incubated in a humidified atmosphere of 5% CO2 and 95% air at 37° C.
Using a vacuum pump, the oxygen rich air was evacuated from an incubator containing plates with cell cultures, and a 100% Argon atmosphere was let in, while maintaining a temperature of 37° C. The cell cultures were washed with PBS twice to remove glucose from the medium. Hypoxic treated cells were cultures in PBS without glucose. These cells lasted for 180 minutes.
(§3) Primary cardiomyocytes which were obtained by method described above, were treated with exemplary decoy peptides described herein. After 30 minutes of incubation, sepsis like (LPS treatment for 6 hours), or myocardial infarction (MI) like (hypoxia for 3 hours) conditions were imposed to measure the release of CK and LDH to the medium and determine the potential cardioprotective effect of the tested decoy peptides. Cytotoxicity and level of cell damage were assessed by spectrophotometric measurement of lactate dehydrogenase (LDH) and creatine kinase (CK) activities (at 30° C.). Results are presented as CK and LDH release in arbitrary units (a.u.)
(§4) Activity of LDH and CK was determined in the cell-culture medium (25 μl) transferred into 96-well plates, using commercial L-LDH/CK kits (such as those manufactured, e.g., by Sigma-Aldrich, BioVision™ or Thermo Fisher Scientific®).
(§5) Primary cardiomyocytes were treated with peptides and peptidomimetics of SEQ ID NOs:1-7 provided at concentrations ranging from 1 μM to 20 μM. Following 30 minutes of incubation, sepsis like (LPS treatment for 6 hours) or MI like (hypoxia for 3 hours) conditions were induced to determine the potential cardioprotective effect of the tested compounds. Creatine kinase (CK) and lactate dehydrogenase (LDH) activity were assayed to determine the level of cellular damage and cell protection effect. The experimental procedure is described in Materials and Methods above. Results are presented as CK and LDH release in arbitrary units (a.u.).

IκB = IκB protein level by Western blot in hypoxic cardiomyocytes; assay type: cell-based; conditions: normalized to β-actin
Protocol: Frozen tissue/cell cultures of liver or heart were pulverized under liquid nitrogen and placed in a homogenization buffer ([…] phosphate buffer, […] sucrose, […] EDTA, […] phenylmethylsulfonyl fluoride (PMSF), and 0.1% vol/vol tergitol, pH 7.5). Myocytes from cell cultures were homogenized in lysis buffer.
Homogenates were centrifuged at 12K rpm for 10 minutes at 4° C., the supernatant was isolated, and protein levels were visualized by immunoblotting with antibodies. Briefly, proteins (60 μg/sample) were separated using SDS-PAGE gel (12%-15%) under denaturing conditions and electro-transferred (blotted) onto nitrocellulose (Bio-Rad) for 1 hour at 100 V. Membranes were blocked with 5% nonfat milk in Tris-buffered saline with 0.1% Tween® 20 (TBST) for 1 hour at room temperature. Primary antibodies were used at a 1:200-1:1000 concentration in TBST with 5% nonfat milk overnight at 4° C. Immunodetection of β-actin/GPDH was performed as an internal control. Dye 800/680 secondary antibodies were added at a concentration of 1:15000 for 1 hour at room temperature (LI-COR® Biosciences, NE, USA). Detection was carried out with LI-CORE® Odyssey® imaging system. Quantification of signals was carried out with the Odyssey® program.
The mechanism of action of peptidomimetics of SEQ ID NOs:1, 2 and 12 was studied in vitro in cardiomyocytes, under hypoxic conditions, by determining the expression level of the IκB gene, which is regulated by activation of TLR4, and by measuring the TLR4 mRNA levels. In addition, TLR4 expression level was measured in macrophage (derived from monocytes) treated with LPS.
IκB protein level was determined by Western blot as described in Material and Methods. The amount of IκB was normalized via-a-vis the amount of β-actin serving as the loading control (the β-actin is coded by a housekeeping gene and its level is expected to remain constant under any experimental conditions).

primary cardiomyocytes [2] = assay: CK and LDH release by primary cardiomyocytes under LPS treatment (sepsis like); assay type: cell-based, Rat; conditions: LPS system; 10 μM
Protocol: as §2, §3, §4, §5

CC(=O)N[C@H](C(=O)N[C@@H](Cc1ccccc1)C(=O)N[C@@H](C)C(=O)N[C@@H](CCC(=O)O)C(N)=O)C(C)C [SEQ ID NO:2, (4S,7S,10S,13S)-7-benzyl-13-carbamoyl-4-isopropyl-10-methyl-2,5,8,11-tetraoxo-3,6,9,12-tetraazahexadecan-16-oic acid] (Ac-VFAE-NH2) was tested, and the “TLR2 mRNA expression level” value (TLR2 mRNA) was “relatively unaffected”, the TLR4 expression level (TLR4; 30 min before LPS (100 ng/ml or 20 μg/ml), 4 hours) was “toward baseline levels” and the “lowering the expression of TLR4 in the presence of LPS, compared with SEQ ID NO: 25” value (TLR4; low and high LPS) was “more effective”. For the same compound, the “TLR4 mRNA expression level” value (TLR4 mRNA) was “significantly decreased”.
CC(=O)N[C@@H](Cc1ccccc1)C(=O)N[C@@H](C)C(=O)N[C@@H](CCC(=O)O)C(N)=O [SEQ ID NO:8, (S)-4-((S)-2-((S)-2-acetamido-3-phenylpropanamido)propanamido)-5-amino-5-oxopentanoic acid] (Ac-Phe-Ala-Glu-NH2) was tested, and the “cell protective effect (CK and LDH release)” value (shortened to “cell protective effect”) (primary cardiomyocytes [1]) was “substantial cell protective effect”.
CC(=O)N[C@@H](Cc1ccccc1)C(=O)NCCC(=O)N[C@@H](CCC(=O)O)C(N)=O [SEQ ID NO:9, (S)-4-(3-((S)-2-acetamido-3-phenylpropanamido)propanamido)-5-amino-5-oxopentanoic acid] was tested, and the “cell protective effect” value (primary cardiomyocytes [1]) was “substantial cell protective effect”.
In the case of CC(=O)NC(C(=O)N[C@@H](C)C(=O)N[C@@H](CCC(=O)O)C(N)=O)c1cccc2ccccc12 (stereo partly drawn) [SEQ ID NO:11, (4S)-4-((2S)-2-(2-acetamido-2-(naphthalen-1-yl)acetamido)propanamido)-5-amino-5-oxopentanoic acid], the “cell protective effect” value (primary cardiomyocytes [1]) is reported as “substantial cell protective effect”.
In the case of CC[C@H](C)[C@H](NC(C)=O)C(=O)N[C@H](C(=O)NC(C(=O)N[C@@H](C)C(N)=O)c1cccc2ccccc12)C(C)C (stereo partly drawn) [SEQ ID NO:12, (2S,3S)-2-acetamido-N-((2S)-1-((2-(((S)-1-amino-1-oxopropan-2-yl)amino)-1-(naphthalen-1-yl)-2-oxoethyl)amino)-3-methyl-1-oxobutan-2-yl)-3-methylpentanamide], the IκB level (IκB) is reported as “high levels”.
With CC(C)[C@H](NC(=O)CN[C@@H](C)C(C)(C)C)C(=O)N[C@@H](Cc1ccccc1)C(=O)N[C@@H](C)C(N)=O [SEQ ID NO:17, (S)-N-((S)-1-(((S)-1-amino-1-oxopropan-2-yl)amino)-1-oxo-3-phenylpropan-2-yl)-2-(2-(((S)-3,3-dimethylbutan-2-yl)amino)acetamido)-3-methylbutanamide] the “cellular protection / cytoprotective effect (CK and LDH release)” value (primary cardiomyocytes [2]) was “significant cytoprotective effect”.
For CC(=O)N[C@H](C(=O)N[C@@H](Cc1cccc2ccccc12)C(=O)N[C@@H](C)C(=O)N[C@@H](CCC(=O)O)C(N)=O)C(C)C [SEQ ID NO:19, (4S,7S,10S,13S)-13-carbamoyl-4-isopropyl-10-methyl-7-(naphthalen-1-ylmethyl)-2,5,8,11-tetraoxo-3,6,9,12-tetraazahexadecan-16-oic acid] (Ac-V[1Nal]AE-NH2), the “cellular protection / cytoprotective effect (CK and LDH release)” value (primary cardiomyocytes [2]) was “significant cytoprotective effect”.
